Converted amounts (≈) assume the structure as drawn.

Common to all, as to format: functional
The subject of experiment [1] is Staphylococcus aureus. In words: Antibacterial activity against methicillin-resistant Staphylococcus aureus MF535.
The subject of experiment [2] is Enterococcus faecium. In words: Antibacterial activity against Enterococcus faecium ATCC 19434.
In experiment [3] the test system is Enterococcus faecium. The experiment is described as follows: Antibacterial activity against vancomycin-resistant Enterococcus faecium VRA.
The subject of experiment [4] is Staphylococcus aureus. In words: Antibacterial activity against methicillin-susceptible Staphylococcus aureus 209P.

Broadly, the MIC is the lowest concentration that inhibits growth of the organism. In the case of `Cn1c(=O)c(C(c2ccc(C(F)(F)F)cc2)c2[nH]c3ccccc3c2CCOC(=O)c2ccccc2)c(O)c2ccccc21` (centres undefined), the MIC in experiment [1] came to 1 µg/mL (≈ 1.68 µM); in experiment [2] it was 8 µg/mL (≈ 13.4 µM); in experiment [3] it was 8 µg/mL (≈ 13.4 µM); in experiment [4], 0.5 µg/mL (≈ 0.838 µM).
Consider `Cn1c(=O)c(C(c2ccc(C(F)(F)F)cc2)c2[nH]c3ccccc3c2CCNC(=O)c2ccccc2)c(O)c2ccccc21` (centres undefined), for which the MIC in experiment [1] stood at 16 µg/mL (≈ 26.9 µM); in experiment [2], 16 µg/mL (≈ 26.9 µM); in experiment [3] it was 16 µg/mL (≈ 26.9 µM); in experiment [4] it was 8 µg/mL (≈ 13.4 µM).
As for `Cn1c(=O)c(C(c2ccc(C(F)(F)F)cc2)c2[nH]c3ccccc3c2CCOC(=O)Cc2ccccc2)c(O)c2ccccc21` (centres undefined), the MIC in experiment [1] was 1 µg/mL (≈ 1.64 µM); in experiment [2], > 128 µg/mL; in experiment [3] it was > 128 µg/mL; in experiment [4] it was 1 µg/mL (≈ 1.64 µM).
With `Cn1c(=O)c(C(c2ccc(C(F)(F)F)cc2)c2[nH]c3ccccc3c2CCOC(=O)C2CCCCC2)c(O)c2ccccc21` (centres undefined), the MIC turned out to be 1 µg/mL (≈ 1.66 µM) in experiment [1], 2 µg/mL (≈ 3.32 µM) in experiment [2], 1 µg/mL (≈ 1.66 µM) in experiment [3] and 1 µg/mL (≈ 1.66 µM) in experiment [4].
For the compound `CN(C(=O)NCCc1c(C(c2ccc(C(F)(F)F)cc2)c2c(O)c3ccccc3n(C)c2=O)[nH]c2ccccc12)c1ccccc1` (centres undefined), the MIC was 1 µg/mL (≈ 1.6 µM) in experiment [1], 2 µg/mL (≈ 3.2 µM) in experiment [2], 1 µg/mL (≈ 1.6 µM) in experiment [3] and 1 µg/mL (≈ 1.6 µM) in experiment [4].
On to `Cn1c(=O)c(C(c2ccc(OC(F)(F)F)cc2)c2[nH]c3ccccc3c2CCOC(=O)c2ccccc2)c(O)c2ccccc21` (centres undefined), for which the MIC is 1 µg/mL (≈ 1.63 µM) in experiment [1], > 128 µg/mL in experiment [2], > 128 µg/mL in experiment [3] and 0.5 µg/mL (≈ 0.816 µM) in experiment [4].
Regarding `Cn1c(=O)c(C(c2ccc(OC(F)(F)F)cc2)c2[nH]c3ccccc3c2CCOC(=O)Cc2ccccc2)c(O)c2ccccc21` (centres undefined), the MIC was found to be 1 µg/mL (≈ 1.6 µM) in experiment [1], 32 µg/mL (≈ 51.1 µM) in experiment [2], 2 µg/mL (≈ 3.19 µM) in experiment [3] and 1 µg/mL (≈ 1.6 µM) in experiment [4].
In the case of `Cn1c(=O)c(C(c2ccc(OC(F)(F)F)cc2)c2[nH]c3ccccc3c2CCOC(=O)C2CCCCC2)c(O)c2ccccc21` (centres undefined), the minimal inhibitory concentration (MIC) came out at 1 µg/mL (≈ 1.62 µM) in experiment [1], 2 µg/mL (≈ 3.23 µM) in experiment [2], 2 µg/mL (≈ 3.23 µM) in experiment [3] and 1 µg/mL (≈ 1.62 µM) in experiment [4].
As to `O=C(OCCc1c(C(c2ccc(OC(F)(F)F)cc2)c2c(O)c3cc(Cl)ccc3oc2=O)[nH]c2ccccc12)c1ccccc1` (centres undefined), the minimum inhibitory concentration (MIC) in experiment [1] came to 2 µg/mL (≈ 3.15 µM); in experiment [2], 1 µg/mL (≈ 1.58 µM); in experiment [3] it was 1 µg/mL (≈ 1.58 µM); in experiment [4] it was 2 µg/mL (≈ 3.15 µM).
On to `O=C(OCCc1c(C(c2ccc(C(F)(F)F)cc2)c2c(O)c3ccccc3oc2=O)[nH]c2ccccc12)c1ccccc1` (centres undefined), for which the MIC in experiment [1], in experiment [2], in experiment [3] and in experiment [4] was 2 µg/mL (≈ 3.43 µM) in each case.
Consider `COc1ccccc1C(=O)OCCc1c(C(c2cccc(Br)c2)c2c(O)c3ccccc3oc2=O)[nH]c2ccccc12` (centres undefined), for which the minimum inhibitory concentration (MIC) is 8 µg/mL (≈ 12.8 µM) in experiment [1], 8 µg/mL (≈ 12.8 µM) in experiment [2], 8 µg/mL (≈ 12.8 µM) in experiment [3] and 4 µg/mL (≈ 6.41 µM) in experiment [4].
In the case of `COc1ccccc1C(=O)NCCc1c(C(c2cccc(Br)c2)c2c(O)c3ccccc3oc2=O)[nH]c2ccccc12` (centres undefined), the minimal inhibitory concentration (MIC) turned out to be 16 µg/mL (≈ 25.7 µM) in experiment [1], 32 µg/mL (≈ 51.3 µM) in experiment [2], 32 µg/mL (≈ 51.3 µM) in experiment [3] and 8 µg/mL (≈ 12.8 µM) in experiment [4].
In the case of `O=C(OCCc1c(C(c2cccc(Br)c2)c2c(O)c3ccccc3oc2=O)[nH]c2ccccc12)c1ccccc1` (centres undefined), the minimal inhibitory concentration (MIC) in experiment [1], in experiment [2], in experiment [3] and in experiment [4] was 4 µg/mL (≈ 6.73 µM) throughout.
On to `CC(=O)OCCc1c(C(c2cccc(Br)c2)c2c(O)c3ccccc3n(C)c2=O)[nH]c2ccccc12` (centres undefined), for which the minimal inhibitory concentration (MIC) came to 16 µg/mL (≈ 29.3 µM) in experiment [1], 64 µg/mL (≈ 117 µM) in experiment [2], 32 µg/mL (≈ 58.7 µM) in experiment [3] and 16 µg/mL (≈ 29.3 µM) in experiment [4].
For the compound `Cn1c(=O)c(C(c2ccc(OC(F)(F)F)cc2)c2[nH]c3ccccc3c2CCNC(=O)c2ccccc2)c(O)c2ccccc21` (centres undefined), the minimum inhibitory concentration (MIC) was 128 µg/mL (≈ 209 µM) in experiment [1], > 128 µg/mL in experiment [2], > 128 µg/mL in experiment [3] and 8 µg/mL (≈ 13.1 µM) in experiment [4].
With `CC(=O)OCCc1c(C(c2cccc(Br)c2)c2c(O)c3ccccc3oc2=O)[nH]c2ccccc12` (centres undefined), the MIC was 32 µg/mL (≈ 60.1 µM) in experiment [1], 64 µg/mL (≈ 120 µM) in experiment [2], 32 µg/mL (≈ 60.1 µM) in experiment [3] and 32 µg/mL (≈ 60.1 µM) in experiment [4].
For the compound `CC(=O)NC[C@H]1CN(c2ccc(N3CCOCC3)c(F)c2)C(=O)O1` [LINEZOLID], the MIC was 1 µg/mL (≈ 2.96 µM) in experiment [1], 2 µg/mL (≈ 5.93 µM) in experiment [2], 2 µg/mL (≈ 5.93 µM) in experiment [3] and 1 µg/mL (≈ 2.96 µM) in experiment [4].
For `CN[C@H](CC(C)C)C(=O)N[C@H]1C(=O)N[C@@H](CC(N)=O)C(=O)N[C@H]2C(=O)N[C@H]3C(=O)N[C@H](C(=O)N[C@H](C(=O)O)c4cc(O)cc(O)c4-c4cc3ccc4O)[C@H](O)c3ccc(c(Cl)c3)Oc3cc2cc(c3O[C@@H]2O[C@H](CO)[C@@H](O)[C@H](O)[C@H]2O[C@H]2C[C@](C)(N)[C@H](O)[C@H](C)O2)Oc2ccc(cc2Cl)[C@H]1O` [VANCOMYCIN], the MIC in experiment [3] is > 128 µg/mL.

Source of the values: ChEMBL document CHEMBL1146387, “A new class of anti-MRSA and anti-VRE agents: preparation and antibacterial activities of indole-containing compounds” (2007).
